# Measured values reported in ChEMBL document CHEMBL3826947, “New 4-Acyl-1-phenylaminocarbonyl-2-phenylpiperazine Derivatives as Potential Inhibitors of Adenovirus Infection. Synthesis, Biological Evaluation, and Structure-activity Relationships” (J Med Chem, 2016).
# Columns and labels:
# Human adenovirus 5 [1] = assay: Antiviral activity against HAdV5 infected in human A549 cells assessed as inhibition of viral entry at 50 uM preincubated for 45 mins followed by cell addition measured after 48 hrs by GFP reporter gene assay relative to control; format: functional; conditions: Human mastadenovirus C
# [2] = Cytotoxicity against human A549 cells assessed as cell viability after 48 hrs by Alamar blue assay; format: cell-based
# Human adenovirus 5 [3] = assay: Antiviral activity against HAdV5 infected in 293beta5 cells assessed as inhibition of plaque formation at 10 uM after 7 days by GFP reporter gene assay relative to control; format: functional; conditions: Human mastadenovirus C, 293beta5, 168 h
# Human adenovirus 5 [4] = assay: Antiviral activity against HAdV5 infected in 293beta5 cells assessed as inhibition of plaque formation after 7 days by GFP reporter gene assay; format: functional, organism-based; conditions: for IC50: Human mastadenovirus C, 293beta5, 168 h
# Human adenovirus 5 [5] = assay: Antiviral activity against HAdV5 infected in human A549 cells assessed as reduction in viral yield at 50 uM after 48 hrs by virus burst size assay relative to control; format: functional
# [6] = Selectivity index, ratio of CC50 for human A549 cells to IC50 for inhibition of HAdV16 plaque formation in 293beta5 cells; format: functional
# [7] = Antiviral activity against HAdV16 infected in human A549 cells assessed as reduction in viral yield at 50 uM after 48 hrs by virus burst size assay relative to control; format: functional, Human adenovirus 16
# Human adenovirus 5 [8] = assay: Antiviral activity against HAdV5 infected in human A549 cells assessed as inhibition of viral DNA replication at 50 uM after 24 hrs by quantitative real time PCR method relative to control; format: functional; conditions: Human mastadenovirus C, A549, 24 h
# [9] = Antiviral activity against HAdV16 infected in 293beta5 cells assessed as inhibition of plaque formation after 7 days by GFP reporter gene assay; format: functional, cell-based, Human adenovirus 16; conditions: Human mastadenovirus B, 293beta5, 168 h
# A549 = assay: Effect on GAPDH gene expression in human A549 cells at 50 uM after 24 hrs by quantitative real time PCR method; format: ADME, cell-based; conditions: a549, 24 h
# Human adenovirus 5 [10] = assay: Antiviral activity against HAdV5 infected in human A549 cells assessed as inhibition of viral genome entry in nucleus by measuring nuclear associated viral DNA level at 50 uM after 45 mins by real time PCR method (reference value: 78.55 +/- 1.37%); format: functional; design: scale not given: the % may be the effect or the level left
# [11] = Selectivity index, ratio of CC50 for human A549 cells to IC50 for inhibition of HAdV5 plaque formation in 293beta5 cells; format: functional
SMILES,inhibition at 50 µM (Human adenovirus 5 [1]) [%],CC50 at 48 h [2] [µM],inhibition at 10 µM (Human adenovirus 5 [3]) [%],further results
CC1CN(C(=O)c2cc3ccccc3o2)CCN1C(=O)Nc1ccccc1[N+](=O)[O-] (configuration not stated),0,203,91,
CC(C)(C)OC(=O)N1CCN(C(=O)Nc2cc(C(F)(F)F)ccc2Cl)C(c2ccccc2)C1 (configuration not stated),89,93.4,100,
O=C(c1cc2ccccc2o1)N1CCN(C(=O)Nc2ccccc2[N+](=O)[O-])C(c2ccccc2)C1 (configuration not stated),38,132,100,inhibition (Human adenovirus 5 [4]): Dose-dependent effect; IC50 (Human adenovirus 5 [4]): 2.5 µM; fold change (FC) (Human adenovirus 5 [5]): 34.5; Ratio CC50/IC50 [6]: 57.3; fold change (FC) [7]: 46.5; inhibition at 50 µM (Human adenovirus 5 [8]): 73.1%; IC50 [9]: 2.3 µM; Activity (A549): Non-toxic; Activity (Human adenovirus 5 [10]): 79.26%; Ratio CC50/IC50 [11]: 53.3
CC1CN(C(=O)OC(C)(C)C)CCN1C(=O)Nc1cc(C(F)(F)F)ccc1Cl (configuration not stated),31,63.5,96,
CC1CN(C(=O)c2cc3ccccc3o2)CCN1C(=O)Nc1ccc(F)cc1 (configuration not stated),0,220,92,
CC(C)(C)OC(=O)N1CCN(C(=O)Nc2ccc(F)cc2)C(c2ccccc2)C1 (configuration not stated),70,110,76,
CC(C)(C)OC(=O)N1CCN(C(=O)Nc2ccc(C(F)(F)F)cc2)C(c2ccccc2)C1 (configuration not stated),75,42.1,71,
O=C(c1cc2ccccc2o1)N1CCN(C(=O)Nc2ccc(C(F)(F)F)cc2)C(c2ccccc2)C1 (configuration not stated),61,70.7,100,
O=C(c1cc2ccccc2o1)N1CCN(C(=O)Nc2ccc(Cl)cc2)C(c2ccccc2)C1 (configuration not stated),33,194,100,inhibition (Human adenovirus 5 [4]): Dose-dependent effect; IC50 (Human adenovirus 5 [4]): 2.5 µM; fold change (FC) (Human adenovirus 5 [5]): 9.9; Ratio CC50/IC50 [6]: 56.9; fold change (FC) [7]: 27.4; inhibition at 50 µM (Human adenovirus 5 [8]): 78.9%; IC50 [9]: 3.4 µM; Activity (A549): Non-toxic; Activity (Human adenovirus 5 [10]): 77.71%; Ratio CC50/IC50 [11]: 79
CC1CN(C(=O)OC(C)(C)C)CCN1C(=O)c1ccc([N+](=O)[O-])cc1 (configuration not stated),< 20,,34,
CC1CN(C(=O)OC(C)(C)C)CCN1C(=O)Nc1ccc(Cl)c(C(F)(F)F)c1 (configuration not stated),72,20.8,100,
CC(C)(C)C(=O)N1CCN(C(=O)Nc2ccc(C#N)cc2)C(c2ccccc2)C1 (configuration not stated),74,147,84,
CC1CN(C(=O)C(C)(C)C)CCN1C(=S)Nc1ccc([N+](=O)[O-])cc1 (configuration not stated),< 20,,64,
CC1CN(C(=O)c2cc3ccccc3o2)CCN1C(=O)Nc1ccc(F)cc1F (configuration not stated),0,,34,
CC1CN(C(=O)C(C)(C)C)CCN1C(=O)Nc1ccc([N+](=O)[O-])cc1 (configuration not stated),50,,0,
CC1CN(C(=O)c2ccccc2)CCN1C(=S)Nc1ccc([N+](=O)[O-])cc1 (configuration not stated),41,31.4,94,
COc1ccc(NC(=O)N2CCN(C(=O)OC(C)(C)C)CC2c2ccccc2)cc1 (configuration not stated),39,133,79,
CC1CN(C(=O)c2ccccc2)CCN1C(=O)Nc1ccc([N+](=O)[O-])cc1 (configuration not stated),50,,72,
COc1ccc(NC(=O)N2CCN(C(=O)c3ccccc3)CC2C)cc1 (configuration not stated),50,,0,
CC(C)(C)C(=O)N1CCN(C(=O)Nc2ccc([N+](=O)[O-])cc2)C(c2ccccc2)C1 (configuration not stated),60,102,44,
COc1ccccc1NC(=O)N1CCN(C(=O)c2cc3ccccc3o2)CC1C (configuration not stated),0,,16,
COc1ccc(NC(=O)N2CCN(C(=O)OC(C)(C)C)CC2C)cc1 (configuration not stated),,,49,
COc1ccc(NC(=O)N2CCN(C(=O)C(C)(C)C)CC2c2ccccc2)cc1 (configuration not stated),0,199,70,
CC1CN(C(=O)OC(C)(C)C)CCN1C(=O)Nc1ccc(Cl)cc1 (configuration not stated),37,150,62,
CC(C)(C)OC(=O)N1CCN(C(=O)Nc2ccc(Cl)cc2)C(c2ccccc2)C1 (configuration not stated),96,17.1,86,

SMILES,inhibition at 50 µM (Human adenovirus 5 [1]) [%],CC50 at 48 h [2] [µM],inhibition at 10 µM (Human adenovirus 5 [3]) [%],further results
CC1CN(C(=O)c2cc3ccccc3o2)CCN1C(=O)Nc1ccccc1 (configuration not stated),0,,11,
CC1CN(C(=O)OC(C)(C)C)CCN1C(=O)Nc1ccc(C(F)(F)F)cc1 (configuration not stated),57,137,31,
CC1CN(C(=O)OC(C)(C)C)CCN1C(=S)Nc1ccc([N+](=O)[O-])cc1 (configuration not stated),< 20,26.3,100,
CC1CN(C(=O)c2cc3ccccc3o2)CCN1C(=O)Nc1ccc(C#N)cc1 (configuration not stated),78,118,83,
CC1CN(C(=O)OC(C)(C)C)CCN1C(=O)Nc1ccccc1[N+](=O)[O-] (configuration not stated),0,,50,
CC1CN(C(=O)c2cc3ccccc3o2)CCN1C(=O)Nc1ccccc1F (configuration not stated),0,,51,
CC(C)(C)OC(=O)N1CCN(C(=O)Nc2ccc(C#N)cc2)C(c2ccccc2)C1 (configuration not stated),45,91.3,67,
CC(C)(C)OC(=O)N1CCN(C(=O)Nc2ccc(Cl)c(C(F)(F)F)c2)C(c2ccccc2)C1 (configuration not stated),93,27.5,100,
CC1CN(C(=O)c2cc3ccccc3o2)CCN1C(=O)Nc1ccc(C(F)(F)F)cc1 (configuration not stated),60,82.2,92,
CC1CN(C(=O)c2cc3ccccc3o2)CCN1C(=O)Nc1ccccc1Br (configuration not stated),44,,56,
CC(C)(C)OC(=O)N1CCN(C(=O)Nc2ccccc2[N+](=O)[O-])C(c2ccccc2)C1 (configuration not stated),62,82.2,100,
COc1ccc(C(=O)N2CCN(C(=O)c3ccccc3)CC2C)cc1 (configuration not stated),0,,0,
CC1CN(C(=O)OC(C)(C)C)CCN1C(=O)Nc1ccc([N+](=O)[O-])cc1 (configuration not stated),65,143,91,
N#Cc1ccc(NC(=O)N2CCN(C(=O)c3cc4ccccc4o3)CC2c2ccccc2)cc1 (configuration not stated),63,200,98,inhibition (Human adenovirus 5 [4]): Dose-dependent effect; IC50 (Human adenovirus 5 [4]): 4.7 µM; fold change (FC) (Human adenovirus 5 [5]): 16.9; Ratio CC50/IC50 [6]: 51.2; fold change (FC) [7]: 60.9; inhibition at 50 µM (Human adenovirus 5 [8]): 88.5%; IC50 [9]: 3.9 µM; Activity (A549): Non-toxic; Activity (Human adenovirus 5 [10]): 81.05%; Ratio CC50/IC50 [11]: 42.7
CC1CN(C(=O)C(C)(C)C)CCN1C(=O)c1ccc([N+](=O)[O-])cc1 (configuration not stated),< 20,,23,
Cc1ccc(NC(=O)N2CCN(C(=O)OC(C)(C)C)CC2c2ccccc2)cc1 (configuration not stated),65,165,63,
CC1CN(C(=O)c2cc3ccccc3o2)CCN1C(=O)Nc1ccc(Cl)cc1 (configuration not stated),36,144,70,
CC1CN(C(=O)c2cc3ccccc3o2)CCN1C(=O)Nc1ccc([N+](=O)[O-])cc1 (configuration not stated),86,51.1,94,
COc1ccc(C(=O)N2CCN(C(=O)C(C)(C)C)CC2C)cc1 (configuration not stated),< 20,,0,
O=C(c1cc2ccccc2o1)N1CCN(C(=O)Nc2ccc(F)cc2)C(c2ccccc2)C1 (configuration not stated),88,12.5,99,
COc1ccc(NC(=O)N2CCN(C(=O)C(C)(C)C)CC2C)cc1 (configuration not stated),< 20,,0,
COc1ccc(NC(=O)N2CCN(C(=O)c3cc4ccccc4o3)CC2C)cc1 (configuration not stated),< 20,,34,
CC1CN(C(=O)c2ccccc2)CCN1C(=O)c1ccc([N+](=O)[O-])cc1 (configuration not stated),< 20,,0,
COc1ccc(C(=O)N2CCN(C(=O)OC(C)(C)C)CC2C)cc1 (configuration not stated),< 20,,34,
